Laboratory results: US8586588B2, “Aryl pyridazinone derivatives and their use as H3 receptor ligands” (Cephalon, Inc., priority 2006, dated 2013)
Like-named read-outs stand apart in the source and are kept apart here.

Tests used:
[1] = molecular target: T1, rat histamine H3 receptor (Rattus norvegicus, UniProt Q9QYN8); test: Rat H3 radioligand binding ([3H]-N-alpha-methylhistamine, CHO-A3 cell membranes, SPA); conditions: binding constant as letter class
T1 construct: encoding the entire 445-amino-acid rat histamine H3 receptor; expressed in transfected cells
Method in brief: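 Membranes from CHO-A3 cells stably expressing rat H3 (10 μg protein) incubated 4 h at room temperature in 50 mM Tris-HCl pH 7.4, 5 mM MgCl2, 0.1% BSA with ~1 nM [3H]-N-alpha-methylhistamine and compound (0.01 nM-30 μM). Bound radioligand read by scintillation proximity; nonspecific binding with 10 μM clobenpropit.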

human H3 receptor = molecular target: T2, human H3 receptor (Homo sapiens, UniProt Q9Y5N1); test: Human H3 radioligand binding ([3H]-N-alpha-methylhistamine, CHO cell membranes, SPA)
T2 construct: expressed in transfected cells
Method in brief: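 CHO cell membranes expressing human H3 (10 μg protein/well) incubated 4 h at room temperature, in the dark, with ~1 nM [3H]-N-alpha-methylhistamine, compounds (0.01 nM-30 μM) and SPA beads in 50 mM Tris HCl pH 7.4, 5 mM MgCl2, 0.1% BSA. Non-specific binding defined with 10 μM clobenpropit.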

[2] = Table B, binding constant as letter class

T2 sequence (Q9Y5N1 whole entry): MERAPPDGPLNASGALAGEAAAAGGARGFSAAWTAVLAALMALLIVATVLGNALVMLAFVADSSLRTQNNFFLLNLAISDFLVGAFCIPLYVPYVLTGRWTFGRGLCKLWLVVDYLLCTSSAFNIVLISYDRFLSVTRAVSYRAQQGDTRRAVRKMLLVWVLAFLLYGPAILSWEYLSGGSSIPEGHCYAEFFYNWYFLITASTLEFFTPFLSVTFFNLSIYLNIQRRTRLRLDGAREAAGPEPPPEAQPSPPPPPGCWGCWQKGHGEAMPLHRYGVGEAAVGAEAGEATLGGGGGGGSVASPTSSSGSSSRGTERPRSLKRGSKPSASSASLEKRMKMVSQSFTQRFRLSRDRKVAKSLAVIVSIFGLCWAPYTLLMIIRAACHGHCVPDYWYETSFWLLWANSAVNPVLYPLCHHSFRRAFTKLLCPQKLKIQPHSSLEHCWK
T1 sequence (Q9QYN8 whole entry): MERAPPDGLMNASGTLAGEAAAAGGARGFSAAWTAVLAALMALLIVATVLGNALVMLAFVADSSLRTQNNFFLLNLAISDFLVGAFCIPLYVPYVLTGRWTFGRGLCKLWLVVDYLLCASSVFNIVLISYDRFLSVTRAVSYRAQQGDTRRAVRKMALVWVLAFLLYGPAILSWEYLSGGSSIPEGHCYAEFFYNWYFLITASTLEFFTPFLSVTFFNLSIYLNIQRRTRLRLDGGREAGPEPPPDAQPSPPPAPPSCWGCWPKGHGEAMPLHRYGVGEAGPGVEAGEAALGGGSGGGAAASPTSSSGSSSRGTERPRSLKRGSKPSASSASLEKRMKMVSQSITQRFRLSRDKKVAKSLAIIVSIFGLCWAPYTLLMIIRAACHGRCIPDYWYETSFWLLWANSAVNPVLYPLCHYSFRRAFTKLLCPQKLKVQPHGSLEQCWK

Ki ([1]; Table B, read-out: rat H3 Ki) [nM]	Ki (human H3 receptor; [2]) [nM]	melting point	Ki (human H3 receptor; Table B, cell prints a number instead of a letter) [nM]	Ki ([1]; Table A, read-out: Rat H3 Ki) [nM]	Ki (human H3 receptor; Table A, binding constant as letter class) [nM]	SMILES
101 to 500	0.1 to 100	195 to 197 °C				CC(C)N1CCC(Oc2ccc(-c3ccc(=O)[nH]n3)cn2)CC1 [Example 142, 6-[6-(1-Isopropyl-piperidin-4-yloxy)-pyridin-3-yl]-2H-pyridazin-3-one]
0.1 to 100	0.1 to 100	> 300 °C				Cc1cc(=O)[nH]nc1-c1ccc(OC2CCN(C3CCC3)CC2)cc1 [Example 222, 6-[4-(1-Cyclobutyl-piperidin-4-yloxy)-phenyl]-5-methyl-2H-pyridazin-3-one]
0.1 to 100	0.1 to 100	183 to 185 °C				COCn1ncc(-c2ccc(OCCCN3CCC[C@H]3C)cc2)cc1=O [Example 224, 2-Methoxymethyl-5-{4-[3-((R)-2-methyl-pyrrolidin-1-yl)-propoxy]-phenyl}-2H-pyridazin-3-one]
0.1 to 100	0.1 to 100	217 to 219 °C				O=c1ccc(-c2ccc(OC3CCN(C4CCC4)CC3)nc2)n[nH]1 [Example 141, 6-[6-(1-Cyclobutyl-piperidin-4-yloxy)-pyridin-3-yl]-2H-pyridazin-3-one]
0.1 to 100	0.1 to 100	76 to 78 °C				C[C@@H]1CCCN1CCCOc1ccc(C2=NN(CC(F)(F)F)C(=O)CC2)cc1 [Example 168, 6-{4-[3-((R)-2-Methyl-pyrrolidin-1-yl)-propoxy]-phenyl}-2-(2,2,2-trifluoro-ethyl)-4,5-dihydro-2H-pyridazin-3-one]
101 to 500	0.1 to 100	148 °C (dec.)				COc1cc(-c2ccc(=O)[nH]n2)ccc1OCCCN1CCC[C@H]1C [Example 136, 6-{3-Methoxy-4-[3-((R)-2-methyl-pyrrolidin-1-yl)-propoxy]-phenyl}-2H-pyridazin-3-one]
0.1 to 100	0.1 to 100	140 to 142 °C				C[C@@H]1CCCN1CCCOc1ccc(C2=NNC(=O)C(C)(C)C2)cc1 [Example 179, 4,4-Dimethyl-6-{4-[3-((R)-2-methyl-pyrrolidin-1-yl)-propoxy]-phenyl}-4,5-dihydro-2H-pyridazin-3-one]
0.1 to 100	0.1 to 100	215 to 220 °C				O=c1ccc(-c2ccc(OC3CCN(C4CCC4)CC3)cc2)n[nH]1 [Example 155, 6-[4-(1-Cyclobutyl-piperidin-4-yloxy)-phenyl]-2H-pyridazin-3-one]
101 to 500	101 to 500	207 to 209 °C				N#Cc1cc(-c2ccc(=O)[nH]n2)ccc1OCCCN1CCCCC1 [Example 130, 2-[3-(piperidin-1-yl)-propoxy]-5-(6-oxo-1,6-dihydro-pyridazin-3-yl)-benzonitrile]
0.1 to 100	0.1 to 100	129 to 132 °C				Cn1nc(-c2ccc(OC3CCN(C4CCCC4)CC3)cc2)ccc1=O [Example 83, 6-[4-(1-Cyclopentyl-piperidin-4-yloxy)-phenyl]-2-methyl-2H-pyridazin-3-one]
0.1 to 100	0.1 to 100	154 to 157 °C				O=c1ccc(-c2ccc(OCCCN3CCCC3)cc2)n[nH]1 [Example 240, 6-[4-(3-Pyrrolidin-1-yl-propoxy)-phenyl]-2H-pyridazin-3-one]
101 to 500	0.1 to 100	> 200 °C (dec.)				C[C@@H]1CCCN1CCCOc1ccc(-c2ccc(=O)[nH]n2)cc1C#N [Example 129, 2-[3-((R)-2-Methyl-pyrrolidin-1-yl)-propoxy]-5-(6-oxo-1,6-dihydro-pyridazin-3-yl)-benzonitrile]
0.1 to 100	0.1 to 100	147 °C				C[C@@H]1CCCN1C[C@@H](O)COc1ccc(-c2ccc(=O)[nH]n2)cc1 [Example 258, 6-{4-[(R)-2-Hydroxy-3-((R)-2-methyl-pyrrolidin-1-yl)-propoxy]-phenyl}-2H-pyridazin-3-one]
0.1 to 100	0.1 to 100	118 to 120 °C				Cc1cccc(-n2ncc(-c3ccc(OCCCN4CCC[C@H]4C)cc3)cc2=O)n1 [Example 98, 2-(6-Methyl-pyridin-2-yl)-5-{4-[3-((R)-2-methyl-pyrrolidin-1-yl)-propoxy]-phenyl}-2H-pyridazin-3-one]
0.1 to 100		152 to 154 °C	4			CCC1CC(=O)NN=C1c1ccc(OC2CCN(C3CCC3)CC2)cc1 (stereo not drawn) [Example 192]
0.1 to 100	0.1 to 100	113 to 115 °C				CC(C)n1nc(-c2ccc(OC3CCN(C4CCC4)CC3)nc2)ccc1=O [Example 145, 6-[6-(1-Cyclobutyl-piperidin-4-yloxy)-pyridin-3-yl]-2-isopropyl-2H-pyridazin-3-one]

Ki ([1]; Table B, read-out: rat H3 Ki) [nM]	Ki (human H3 receptor; [2]) [nM]	melting point	Ki (human H3 receptor; Table B, cell prints a number instead of a letter) [nM]	Ki ([1]; Table A, read-out: Rat H3 Ki) [nM]	Ki (human H3 receptor; Table A, binding constant as letter class) [nM]	SMILES
0.1 to 100	0.1 to 100	220 to 222 °C				C[C@@H]1CCCN1CCCOc1ccc(-c2ccc(=O)[nH]n2)c(F)c1 [Example 214, 6-{2-Fluoro-4-[3-((R)-2-methyl-pyrrolidin-1-yl)-propoxy]-phenyl}-2H-pyridazin-3-one]
101 to 500	0.1 to 100	95 to 98 °C				CN(CCCOc1ccc(-c2ccc(=O)[nH]n2)cc1)C1CCCC1 [Example 242, 6-{4-[3-(Cyclopentyl-methyl-amino)-propoxy]-phenyl}-2H-pyridazin-3-one]
0.1 to 100	0.1 to 100	112 to 115 °C				C[C@H](COc1ccc(C2=NNC(=O)C3CC23)cc1)CN1CCC[C@H]1C (stereo partly drawn) [Example 245]
		167 to 169 °C		> 1000	> 1000	Cn1nc(-c2ccc(OCC3CCN(C(=O)OC(C)(C)C)CC3)cc2)c2ccccc2c1=O [Example 62, 4-[4-(3-Methyl-4-oxo-3,4-dihydro-phthalazin-1-yl)-phenoxymethyl]-piperidine-1-carboxylic acid tert-butyl ester]
0.1 to 100	0.1 to 100	132 to 133 °C				C[C@@H]1CCCN1CCCOc1ccc(C2=NNC(=O)CC2)cc1F [Example 180, 6-{3-Fluoro-4-[3-((R)-2-methyl-pyrrolidin-1-yl)-propoxy]-phenyl}-4,5-dihydro-2H-pyridazin-3-one]
101 to 500	0.1 to 100	153 °C				C[C@@H]1CCCN1CC(O)COc1ccc(-c2ccc(=O)[nH]n2)cc1 (stereo partly drawn) [Example 256, 6-{4-[2-Hydroxy-3-((R)-2-methyl-pyrrolidin-1-yl)-propoxy]-phenyl}-2H-pyridazin-3-one]
0.1 to 100	0.1 to 100	70 to 73 °C				C[C@@H]1CCCN1CCCOc1ccc(-n2ncc3ccccc3c2=O)cc1 [Example 202, 2-{4-[3-((R)-2-Methyl-pyrrolidin-1-yl)-propoxy]-phenyl}-2H-phthalazin-1-one]
501 to 1000	101 to 500	188 to 191 °C				CC(C)N1CCC(COc2ccc(-c3ccc(=O)[nH]n3)cn2)CC1 [Example 140, 6-[6-(1-Isopropyl-piperidin-4-ylmethoxy)-pyridin-3-yl]-2H-pyridazin-3-one]
0.1 to 100	0.1 to 100	165 to 167 °C				C[C@@H]1CCCN1CCCOc1c(Br)cc(-c2ccc(=O)[nH]n2)cc1Br [Example 185, 6-{3,5-Dibromo-4-[3-((R)-2-methyl-pyrrolidin-1-yl)-propoxy]-phenyl}-2H-pyridazin-3-one]
0.1 to 100	0.1 to 100	210 to 213 °C				O=c1[nH]nc(-c2ccc(OC3CCN(C4CCC4)CC3)cc2)c2c1CCC2 [Example 176, 4-[4-(1-Cyclobutyl-piperidin-4-yloxy)-phenyl]-2,5,6,7-tetrahydro-cyclopenta[d]pyridazin-1-one]
0.1 to 100	0.1 to 100	203 °C (dec.)				O=c1cc(-c2ccccn2)c(-c2ccc(OC3CCN(C4CCC4)CC3)cc2)n[nH]1 [Example 115, 6-[4-(1-Cyclobutyl-piperidin-4-yloxy)-phenyl]-5-pyridin-2-yl-2H-pyridazin-3-one]
0.1 to 100	0.1 to 100	163 to 167 °C				C[C@H](COc1ccc(-c2ccc(=O)[nH]n2)cc1)CN1CCC[C@H]1C [Example 132]
0.1 to 100	0.1 to 100	211 to 213 °C				O=c1ccc(-c2ccc(OC3CCN(C4CCCC4)CC3)cc2)n[nH]1 [Example 154, 6-[4-(1-Cyclopentyl-piperidin-4-yloxy)-phenyl]-2H-pyridazin-3-one]
0.1 to 100	0.1 to 100	218 to 220 °C				C[C@@H]1CCCN1CCCOc1ccc(C2=NNC(=O)C3CCC23)cc1 (stereo partly drawn) [Example 173, 5-{4-[3-((R)-2-Methyl-pyrrolidin-1-yl)-propoxy]-phenyl}-3,4-diaza-bicyclo[4.2.0]oct-4-en-2-one]
0.1 to 100	0.1 to 100	95 to 98 °C				C[C@@H]1CCCN1CCCOc1ccc(-c2ccc(=O)n(CCO)n2)cc1 [Example 131, 2-(2-Hydroxy-ethyl)-6-{4-[3-((R)-2-methyl-pyrrolidin-1-yl)-propoxy]-phenyl}-2H-pyridazin-3-one]
0.1 to 100	0.1 to 100	156 °C				C[C@@H]1CCCN1C[C@H](O)COc1ccc(-c2ccc(=O)[nH]n2)cc1 [Example 257, 6-{4-[(S)-2-Hydroxy-3-((R)-2-methyl-pyrrolidin-1-yl)-propoxy]-phenyl}-2H-pyridazin-3-one]
